Data: a melting point compilation (Tetko et al.; mined from patent text by program, amines drawn as free bases though some values may be those of a salt)

Row | SMILES | melting point [°C]
1 | Cc1nc(-n2ccc(OCc3ccccc3)cc2=O)n(C)c1C(=O)NCc1ccccc1 | 232 to 233
2 | CC(Cc1c[nH]c2ccccc12)(NC(=O)OC1C2CC3CC(C2)CC1C3)C(=O)NCC(CCC(=O)O)c1ccccc1 (stereo not drawn) | 117 to 122
3 | c1ccc(-c2cn3cnnc3cn2)cc1 | 231 to 233
4 | CCC(=O)NCCc1c[nH]c2ccc(OCc3ccccc3)cc12 | 110 to 112
5 | C=CCONC(=O)c1nc(-c2ccc(C)cc2)cc(N)c1Cl | 177 to 179
6 | COc1cc(OC)nc(NC(=O)NS(=O)(=O)c2sc(Cl)c3c2C(=O)OCC3)n1 | 110 to 114
7 | Cc1cccc(-c2n[nH]cc2-c2ccc(F)c(-c3ccc(N4CCOCC4)cn3)c2)n1 | 88 to 90
8 | CC(=O)Nc1ccccc1NS(=O)(=O)c1cc(C(=O)O)cc(NCc2ccccc2)c1Oc1ccccc1 | 197 to 200
9 | N#Cc1ccc(OCc2ccc3c(c2)OCO3)cc1F | 139 to 140
10 | CCCCC/C(=C\C=C\C(=O)O)c1cccc(F)c1 | 84 to 85.5
11 | CCOC(=O)C1=C(C)NC(C)=C(C(=O)OC)C1c1ccc(SC)cc1 (stereo not drawn) | 163
12 | COCCOc1cc(N(C)S(=O)(=O)c2ccccn2)c2[nH]c(C3=N[C@@H](CO)CS3)cc2c1 | 147
13 | CC(C)NC(=S)NCc1c(Cl)ccc(C(=O)O)c1Cl | > 220
14 | CC(CC(=O)O)n1nnnc1S (stereo not drawn) | 169 to 172
15 | Cc1cc2ccc(Cl)cc2[nH]1 | 120 to 122
16 | CCCCCCCCCCCCCCCCCC(=O)c1ccc(C(=O)O)c(Cl)c1 | 96 to 102
17 | COc1ccc(C2=C(c3ccccc3)CCCc3cc(O)ccc32)cc1 | 232 to 233
18 | CCCCCCCCCCCCCCCCCCNCP(=O)(O)O | 108 to 112
19 | O=C(O)c1ccc2c(=O)c3ccccc3ccc2c1 | 261 to 262
20 | CC[C@@H](c1ccccc1)N(Cc1ccc(S(C)(=O)=O)cc1)S(=O)(=O)c1ccc(Cl)cc1 | 61 to 63
21 | CSC(N)=C(Cc1ccccc1)[N+](=O)[O-] | 112
22 | COC(=O)c1cccc(Oc2ncccc2C(=O)NCc2ccccc2)c1 | 119 to 120

Row | SMILES | melting point [°C]
23 | Cc1cc(SC#N)c(C)c(C)c1O | 100
24 | Cc1cnc2c(S(=O)(=O)N[C@@H](CCCc3cn(C(c4ccccc4)(c4ccccc4)c4ccccc4)cn3)C(=O)O)cccc2c1 | 170
25 | CCCc1c(OCCCCCCc2cccc(OCCCCCC(=O)O)c2CCC(=O)O)ccc2c1OCCC2=O | 86 to 88
26 | CC(=O)Oc1ccc2nc(C#N)nc(Cl)c2c1 | 145 to 147
27 | CC1=NN(c2cccc(C(=O)O)c2)C(=O)C1=c1[nH]c(=c2[nH]c(=C3C(=O)N(c4cccc(C(=O)O)c4)N=C3C)c3ccccc23)c2ccccc12 | > 300
28 | CC(=O)c1c(C)oc2c(-n3c(=O)cc(C(F)(F)F)n(C)c3=O)c(F)cc(Cl)c12 | 138 to 140
29 | COc1c(N2CCNCC2)c(F)cc2c(=O)c(C(=O)O)cn(C3CC3)c12 | 177 to 178
30 | CCCc1c(OCCCOc2ccc3c(c2CCC)OC(C)(CCC(=O)O)CC3=O)ccc(C(C)=O)c1O (stereo not drawn) | 80 to 83
31 | COC(=O)C(=O)NS(=O)(=O)Cc1ccccc1 | 117 to 122
32 | Clc1ccc(Cn2ccc3cc(OCc4ccncc4)ccc32)cc1 | 105 to 107
33 | Cc1nc(Cn2c(=O)sc3cc(F)c(N=C=O)cc32)no1 | 125 to 127
34 | CCOC(=O)c1ncc(Cl)cc1N | 140 to 142
35 | O=C(O)Cc1c(C(=O)c2ccc(Cl)cc2)[nH]c2cc(C(F)(F)F)ccc12 | 155 to 160
36 | CCC(=O)Nc1c(C)c(C)c2c(c1C)CC(C)(C)O2 | 146
37 | O=C(O)c1cc(S(=O)(=O)N(CCc2ccc(Cl)cc2)Cc2ccccc2)ccc1Br | 142 to 144
38 | CCc1nc(C)c(CC(=O)O)c(=O)n1Cc1ccc(-c2ccccc2-c2nnn[nH]2)cc1 | 325 to 329
39 | O=C1NC(=O)C(Cc2ccc(OCCNc3nc4ccccc4o3)cc2)S1 (stereo not drawn) | 202 to 203
40 | COc1ncnc(-c2ccc(Cl)cc2Cl)c1C#N | 107 to 109
41 | Fc1ccc(-c2nc(SC(F)(F)C(F)F)[nH]c2-c2ccncc2)cc1 | 242 to 248
42 | CCOC(=O)C(Cc1ccc(OC)cc1SCc1ccc(OC)cc1)(CC(C)C)C(=O)OCC | 59 to 60.5
43 | C=CCc1c(O)c(C)cc2ccc(=O)oc12 | 161 to 162
44 | CCOC(=O)c1ccc(CBr)c(F)c1 | 42.5 to 44

Row | SMILES | melting point [°C]
45 | O=[N+]([O-])c1cccnc1NCc1ccccc1 | 81 to 82
46 | Oc1ccc2c(c1)COc1c-2cc2ccc(O)cc2c1-c1cccc(F)c1 | 225 to 227
47 | CC(C#N)(c1ccccc1)c1ccc([N+](=O)[O-])cc1 (stereo not drawn) | 76 to 78
48 | CCCCCCCCCCCCCCCCCC(O)c1ccc(C2=NC(C)(C)CO2)cc1 (stereo not drawn) | 72 to 75
49 | Cc1cc2c(cc1Cl)C(Br)(c1ccccc1Cl)C(=O)N2 (stereo not drawn) | 109 to 111
50 | NC(CCNCCC(N)=NO)=NO | 180
51 | Cc1c(F)c(F)c(O)c2c(=O)c(C(=O)O)cn(-c3cc(N)c(F)cc3F)c12 | > 280
52 | O=C(O)c1csc(CO)c1 | 149
53 | CCCCN(Cc1ccccc1)C(=O)Nc1cccc(Cl)c1 | 69 to 70
54 | NC(C(=O)O)c1ccc(C(=O)O)cc1SCCc1ccccc1 (stereo not drawn) | 227 to 231
55 | O=c1oc(=O)n(CCc2ccccc2)c2ncccc12 | 147 to 149
56 | COc1cc(C)nc(NC(=O)NS(=O)(=O)c2ccccc2CCSC#N)n1 | 161 to 165
57 | N#Cc1c(Nc2c(F)cccc2F)cccc1-c1ccccc1 | 139 to 141
58 | CS(=O)(=O)c1ccc(-c2coc(=O)n2-c2ccc(Br)cc2)cc1 | 217 to 219
59 | COc1cc2cc(C(=O)O)[nH]c2cc1OCCCl | 187 to 189
60 | Cc1ccccc1-c1ccc(C(=O)N2Cc3cccn3Cc3ccccc32)cc1C | 145 to 148
61 | N#Cc1cccc(-n2c(=O)c(CCCc3ccncc3)cc3cccnc32)c1 | 202 to 204
62 | CN1C(C(=O)Nc2cncc(Cl)n2)=C(O)c2cc(Cl)ccc2S1(=O)=O | 283 to 284
63 | O=C(Nc1ccc(Cl)c(Cl)c1)c1cc(Br)ccc1O | 249 to 251
64 | NNC(=O)c1cc(Cl)c(O)cc1O | 260
65 | CCCCNC(=O)C(=O)[C@H](CC(C)C)NC(=O)[C@@H](NS(=O)(=O)c1ccc(F)cc1)C(C)C | 108 to 110
66 | O=C1NC(=O)C(Cc2ccc(OCCN3C(=O)SC(c4ccccc4)C3=O)cc2)S1 (stereo not drawn) | 67

Now from value to compound:

Row | melting point [°C] | SMILES
67 | 127 | COc1cc(OC)c(C2=CCCCC2)c(OC)c1
68 | 142 | C[C@H](CC(=O)c1ccc(C#N)cc1)C(=O)N1CCC(OCC(=O)OC(C)(C)C)CC1
69 | 230 to 235 | CCSc1ccnc2sc(C(N)=O)c(N)c12
70 | 80 | FC(F)(F)c1nncn1-c1ccccc1
71 | 100 to 101 | NC(=O)Cc1cccc(OCCN2CCC(Cc3ccccc3)CC2)c1
72 | 198 to 201 | CCOC(=O)CCNC(=O)NC1CCN(c2ccc(C=NNOC(=O)OCC)cc2)C1=O (stereo not drawn)
73 | 182 | CCCn1c(=O)c2c(nc(/C=C/c3ccc4c(c3)OCCO4)n2C)n(CCC)c1=O
74 | 285 | Cc1ccc(N2C(=O)C(O)=C(C(=O)c3ccc(C(C)C)cc3)C2c2ccc(Cn3nccn3)cc2)nn1 (stereo not drawn)
75 | 300 | CCc1c2c(c(C)[nH]c1=O)CC(c1ccccn1)CC2 (stereo not drawn)
76 | 205 to 207 | N#Cc1cnc2cc3c(cc2c1Cl)ncn3CCN1CCOCC1
77 | 250 to 252 | CC(C)(CO)c1ccc(C(=O)Nc2cn3cc(-c4ccsc4)ccc3n2)cc1
78 | 160 to 166 | Cc1nccn1CC1CCc2c(c3ccccc3n2C)/C1=N/OC(=O)c1cccc(C#N)c1 (stereo not drawn)
79 | 78 | C[Si](C)(C)c1ccc(-c2ccc(Br)cc2F)c(F)c1F
80 | 116 | NCCCc1csc(N=C2NCCCN2)n1
81 | 201 to 202 | Cc1ccn2c(C)c(-c3ccc4sc(=O)n(Cc5cccnc5)c4c3)nc2c1
82 | 217 to 220 | O=C(O)c1ccc(Cl)nc1NCc1ccncc1
83 | 57.8 to 58.1 | BrCCc1ccc2c(c1)CCC2
84 | 62 to 64 | Cc1ccc([C@H]2CCCN2[S@@](=O)C(C)(C)C)cc1
85 | 189 to 191 | Cc1cnc(CNC(=O)c2sc(-n3cnn(Cc4ccc(F)cc4)c3=O)cc2C)cn1

Row | melting point [°C] | SMILES
86 | 155 to 159 | CCCCN(C(=O)c1ccccc1)C1CC(C)(C)N(OC(=O)c2ccccc2)C(C)(C)C1
87 | 94 to 99.5 | CC(C)(C)C(O)(Cn1cncn1)C1CCC1 (stereo not drawn)
88 | 58 | CCOC(=O)C(C)(Cc1cccnc1)S(=O)(=O)c1ccc(OC)cc1 (stereo not drawn)
89 | 179 to 182 | CC1(C)Cc2nc(C3CCCC3)c(C(=O)c3ccc(C(F)(F)F)cc3)c(-c3ccsc3)c2C(O)C1 (stereo not drawn)
90 | 155 | COc1cncc(-c2ccc(OC3SCC(OC(C)=O)C(OC(C)=O)C3OC(C)=O)cn2)c1 (stereo not drawn)
91 | 270 to 272 | CSc1nc(O)nc(-c2ccncc2)n1
92 | 260 | Cc1c(F)c(N2CCC(N)C2)nc2c1c(=O)c(C(=O)O)cn2-c1ccc(F)cc1F (stereo not drawn)
93 | 127 to 128 | C=C1C(=O)N(C)CCC1(O)c1cccc(OC)c1 (stereo not drawn)
94 | 117 to 120 | CSCC(C)(C)c1nnc(N)s1
95 | 155 to 157 | Cc1cccc(-n2cnc(OC(C)C(=O)O)n2)c1 (stereo not drawn)
96 | 70 to 71.5 | CC(C)C1C(=O)N(COC(=O)c2c(Cl)cccc2Cl)S(=O)(=O)N1C (stereo not drawn)
97 | 166 to 168 | CCc1nnc2c(NC3CCCC3)nc3ccccc3n12
98 | 151 to 152 | CCOc1cc(OCc2cn(-c3ccc(C(F)(F)F)cn3)nc2C)ccc1CCC(=O)O
99 | 87.8 to 89.6 | CCOC(=O)C1=Cc2cc(SC)ccc2OC1C(F)(F)F (stereo not drawn)
100 | 161 to 162 | CCOCc1nc2c(N)nc3ccccc3c2n1CC(C)(C)N
101 | 231 to 232 | Cc1ccccc1-c1c(C(=O)O)c(=O)n(C)c2cc3c(cc12)CCC3
102 | 184 to 185 | c1cc2nc3c(n2nc1N1CCCCC1)CCCC3
103 | 108 to 109 | CCCCN1CCCC1CNC(=O)c1cc(Cl)cc2c1SCCN2C (stereo not drawn)
